According to article PMC12730333 (Biology, 2025):
Where two headings read alike, the source gives them in different places. Marks after values point to notes of the source that are not given here.

Key:
[1] = Cytotoxicity assay (Alamar Blue, 24 h) on murine peritoneal macrophages; type: cell-based, Swiss Webster mice; details: male, Swiss Webster, mouse, murine peritoneal macrophages (MPMs, primary cells); for CC50 at 24 h: 3 × 10^5 cells/well
Procedure: (§1) Murine peritoneal macrophages—MPMs (primary cells)—were isolated from male Swiss Webster mice stimulated with 1 mL of 3% Brewer’s thioglycollate medium, administered intraperitoneally. After 96 h, the animals were euthanized, and the MPMs were collected by peritoneal lavage with approximately 10 mL of RPMI 1640 medium. The cell suspension was centrifuged at 382× g for 10 min, and the pellet was resuspended in medium supplemented with 5% FBS, 1% Pen/Str, and 2 mM L-glutamine. All cell cultures were maintained at 37 °C and 5% CO2 [73]. For the experiments, all cell types were cultured until confluency.
(§2) J774.G8, VERO (10^5 cells/well), HepG2, L929 (0.5 × 10^5 cells/well) cells, and MPMs (3 × 10^5 cells/well) were centrifuged, resuspended in medium, plated in 96-well microplates, and incubated for 24 h under cultivation conditions. Subsequently, they were exposed to different concentrations of the compounds, serially diluted in medium to a final volume of 100 µL/well, and incubated for 24 h at 37 °C and 5% CO2. Cell viability was then assessed using the AB, and data were acquired by spectrophotometry. […] Untreated cells were used as negative controls, and cells exposed to the reference compound (MT) were used as positive controls. The Selectivity Index (SI) was calculated using the ratio SI = CC50 (mammalian cells)/IC50 (promastigote or amastigote forms of L. amazonensis).

[2] = tested on: promastigote forms of Leishmania amazonensis PH8 strain; assay: Leishmanicidal activity assay on promastigotes (Alamar Blue, 24 h); type: cell-based; details: 10^6 parasites/mL
Procedure: Promastigote forms of Leishmania amazonensis (IFLA/BR/1967/PH8) were obtained from the Instituto Oswaldo Cruz Leishmania collection (CLIOC/Fiocruz). These cultures were maintained in Schneider’s Insect Medium, supplemented with 20% FBS and 1 μL/mL of Pen/Str at 26 °C. In vitro passages were conducted weekly, with promastigotes harvested during the late logarithmic phase for experiments on the 5th day of growth (Figure S1A).
MT was employed as the reference drug.

VERO cells = assay: Cytotoxicity assay (Alamar Blue, 24 h) on VERO cells; type: cell-based, African green monkey; details: for CC50: 10^5 cells/well
Procedure: (§3) HepG2 cells (human hepatocellular carcinoma), VERO cells (African green monkey kidney), and J774.G8 macrophages (murine reticulosarcoma) were maintained in DMEM medium, supplemented with 10% FBS, 1% Pen/Str at 37 °C and 5% CO2 [70, 71]. For the cultivation of L929 fibroblasts (murine fibrosarcoma), RPMI 1640 medium without phenol red, supplemented with 2 mM L-glutamine, 10% FBS, and 1% Pen/Str, was used and maintained under the same conditions of temperature and CO2 as above.
as §2

[3] = as above; type: cell-based, African green monkey; details: African green monkey, VERO cells, 10^5 cells/well
Procedure: as §3, §2

[4] = tested on: ex vivo amastigote forms of L. amazonensis LTB0016 strain; assay: Leishmanicidal activity assay on ex vivo amastigotes (Alamar Blue, 24 h); details: for IC50: 24 h, read-out: IC50 Ama.; for efficacy compared with MT: concentrations below 0.28 μM; for inhibitory action compared with MT: doses < 0.10 μM
Text: Ex vivo amastigote forms of L. amazonensis (MHOM/BR/77/LTB0016) were harvested and purified from lesions of male BALB/c mice. For this, a suspension containing 10^6 amastigotes was inoculated subcutaneously into the intraplantar region of the hind paw. After 30 days, the animals were euthanized, and their paws were excised and rinsed in 70% ethanol. The epidermis and necrotic tissues were mechanically dissociated. Subsequently, the paws were placed in Petri dishes containing RPMI 1640 medium supplemented with 5% FBS and 2% Pen/Str. […] The supernatant was transferred to another tube, homogenized with a syringe, and centrifuged at 764× g for another 15 min. The supernatant was discarded, and the pellet was resuspended in RPMI 1640 medium [69].
(§4) Promastigotes were kept at 26 °C, whereas amastigotes were kept at 32 °C. After 24 h, parasite viability was assessed using the AB colorimetric method, and the data were analyzed using a spectrophotometer as previously described [74]. […] Wells with medium and without parasites were used as blanks, and wells with medium and untreated parasites were used as negative controls. MT was employed as the reference drug.

[5] = Cytotoxicity assay (Alamar Blue, 24 h) on J774.G8 macrophages; type: cell-based, murine; details: mouse, J774.G8 macrophages, 10^5 cells/well, read-out: CC50 J744.G8
Procedure: as §3, §2

[6] = Cytotoxicity assay (Alamar Blue, 24 h) on HepG2 cells; type: cell-based, human; details: human, HepG2 cells, 0.5 × 10^5 cells/well
Procedure: as §3, §2

[7] = Cytotoxicity assay (Alamar Blue, 24 h) on L929 fibroblasts; type: cell-based, murine; details: mouse, L929 fibroblasts; for CC50 at 24 h: 0.5 × 10^5 cells/well
Procedure: as §3, §2

[8] = tested on: promastigote forms of Leishmania amazonensis PH8 strain; assay: ROS production by flow cytometry, H2DCFDA, promastigotes; type: cell-based; details: exposed to IC50 (AA 10 µM), 24 h
[9] = tested on: ex vivo amastigote forms of L. amazonensis LTB0016 strain; assay: ROS production by flow cytometry, H2DCFDA, ex vivo amastigotes; type: cell-based, Leishmania amazonensis; details: exposed to IC50 (AA 10 µM), 24 h; for VIROS, Ex Vivo Amastigotes High Population / VIROS, Ex Vivo Amastigotes Low Population: MT/MC
[10] = tested on: Leishmania amazonensis promastigote forms (PH8 strain); details: exposed to IC50, 24–168 h
Procedure: as §4

[11] = tested on: ex vivo amastigote forms of L. amazonensis LTB0016 strain; assay: Mitochondrial membrane potential (ΔΨm) by flow cytometry, TMRE, ex vivo amastigotes; details: for TMRE MFI, ex vivo Amastigotes High Population / TMRE MFI, ex vivo Amastigotes Low Population / VIΔΨm, ex vivo Amastigotes High Population / VIΔΨm, ex vivo Amastigotes Low Population: exposed to IC50, 24 h; for VIΔΨm, ex vivo Amastigotes High Population / VIΔΨm, ex vivo Amastigotes Low Population: (MT − MC)/MC
HepG2 cells [12] = assay: Cytotoxicity assay (Alamar Blue, 24 h) on HepG2 cells; type: cell-based, human; details: 0.5 × 10^5 cells/well
Procedure: as §3, §2

[13] = tested on: promastigote forms of Leishmania amazonensis PH8 strain; assay: Mitochondrial membrane potential (ΔΨm) by flow cytometry, TMRE, promastigotes; details: exposed to IC50, 24 h; for VIΔΨm, Promastigotes High Population / VIΔΨm, Promastigotes Low Population: (MT − MC)/MC; for VIΔΨm, Promastigotes Low Population: negative = depolarization
[14] = tested on: murine peritoneal macrophages—MPMs; assay: Cytotoxicity assay (Alamar Blue, 24 h) on murine peritoneal macrophages; type: cell-based, Swiss Webster mice; details: 3 × 10^5 cells/well
Procedure: as §1, §2

J774.G8 cells = assay: Cytotoxicity assay (Alamar Blue, 24 h) on J774.G8 macrophages; type: cell-based, murine; details: 10^5 cells/well, read-out: CC50 J744.G8
Procedure: as §3, §2

L929 cells = assay: Cytotoxicity assay (Alamar Blue, 24 h) on L929 fibroblasts; type: cell-based, murine; details: for CC50: 0.5 × 10^5 cells/well
Procedure: as §3, §2

HepG2 cells [15] = tested on: HepG2 cells; set-up: method as in Araújo et al. 120; details: ref Araújo et al. 120; read-out: cytotoxic concentration (compared with CC50 in HepG2); cited from earlier work
[16] = ex vivo amastigotes, 10^6 parasites/mL

Structure (SMILES) | CC50 at 24 h [1] [µM] | IC50 ([2]; Leishmania amazonensis) [µM] | H2DCFDA MFI, Promastigotes High Population [8] | H2DCFDA MFI, Promastigotes Low Population [8] | H2DCFDA MFI, Ex Vivo Amastigotes High Population [9] | H2DCFDA MFI, Ex Vivo Amastigotes Low Population [9] | VIROS, Ex Vivo Amastigotes High Population [9] | VIROS, Ex Vivo Amastigotes Low Population [9] | time from which proliferation was significantly (p < 0.05) reduced compared to MT [10] [h] | IC50 [2] [µM] | inhibitory action compared with MT ([4]; ex vivo amastigotes) | TMRE MFI, ex vivo Amastigotes High Population [11] | TMRE MFI, ex vivo Amastigotes Low Population [11] | VIΔΨm, ex vivo Amastigotes High Population [11] | VIΔΨm, ex vivo Amastigotes Low Population [11] | CC50 (HepG2 cells [12]) [µM] | TMRE MFI, Promastigotes High Population [13] | TMRE MFI, Promastigotes Low Population [13] | VIΔΨm, Promastigotes High Population [13] | VIΔΨm, Promastigotes Low Population [13] | also measured
CCCCCCCCCCCCCCCCOP(=O)([O-])OCC[N+](C)(C)C [Miltefosine, miltefosine, reference compound] | 103 ± 4.77 | 23.2 ± 2.55 | – | – | – | – | – | – | – | – | – | – | – | – | – | – | – | – | – | – | viability at 24 h ([1]; exposures up to 70 μM): > 50%; viability of VERO cells (VERO cells; concentrations ≥ 300 μM): eliminated the viability; CC50 at 24 h [3]: 168 ± 2.75 µM; IC50 ([4]; Leishmania amazonensis): 0.97 ± 0.4 µM; CC50 at 24 h [5]: 156 ± 8.48 µM; CC50 at 24 h [6]: 181 ± 11.3 µM; CC50 at 24 h [7]: 113 ± 18.2 µM
CCCCCC[C@H]1C(=O)O[C@H](C)[C@H](NC(=O)c2cccc(NC=O)c2O)C(=O)O[C@@H](C)[C@@H]1OC(=O)CC(C)C [AA, Antimycin A, reference compound] | – | – | 890,705.80 | 19,775.40 | 143,227.25 | 3011.23 | 0.60 ± 0.53 | 1.14 ± 0.38 | – | – | – | – | – | – | – | – | – | – | – | – | VIROS, Promastigotes Low Population ([8]; MT/MC): 0.52 ± 0.13; VIROS, Promastigotes High Population ([8]; MT/MC (fold of control)): 2.07 ± 0.23
CCNc1cc2[s+]c3cc(NCC)c(C)cc3nc2cc1C [NMB, new methylene blue] | 31.3 ± 5.72 | < 5.5 | 1,512,521.00 * | 31,489.80 | 131,669.43 | 2940.57 | 0.84 ± 0.51 | 1.62 ± 0.90 | ≥ 72 | 5.42 | more inhibitory action | 277,557.80 * | 3770.37 | −0.43 ± 0.20 | −0.27 ± 0.06 | 71.6 ± 3.15 | 65,590.87 | 4095.05 | 0.11 ± 0.08 | −0.14 ± 0.20 | CC50 at 24 h [3]: 44.7 ± 3.4 µM; IC50 ([4]; Leishmania amazonensis): 2.66 ± 0.95 µM; efficacy compared with MT ([4]; ex vivo amastigotes): surpassed the efficacy of MT; CC50 at 24 h [5]: 68.5 ± 2.12 µM; loss of potential (ΔΨm) in HP ex vivo amastigotes / mitochondrial depolarization ([11]; IC50, 24 h): up to 61%; CC50 at 24 h [6]: > 70 µM; CC50 at 24 h [7]: 280.2 ± 2.19 µM; viability at 24 h ([7]; lower concentrations (37–100 μM), read-out: viability of L929 cells): > 50%
CCNc1cc2[s+]c3cc(NCC)c(C)cc3nc2cc1C.F[P-](F)(F)(F)(F)F.F[P-](F)(F)(F)(F)F.F[P-](F)(F)(F)(F)F.F[P-](F)(F)(F)(F)F.N#[O+].[Ru+2].c1ccc(-c2ccccn2)nc1.c1ccc(-c2ccccn2)nc1 [NMB-B, new methylene blue B] | – | – | 2,639,177.00 ** | 39,191.97 | 131,896.27 | 2116.87 | 0.85 ± 0.49 | 1.11 ± 0.48 | ≥ 48 | 5.48 | more inhibitory action | 410,112.30 | 4174.80 | −0.59 ± 0.21 | −0.31 ± 0.03 | 34.2 ± 7.31 | 74,562.13 | 4070.50 | 0.27 ± 0.16 | −0.13 ± 0.09 | CC50 [14]: 65.9 ± 1.69 µM; CC50 (VERO cells): 248 ± 32.9 µM; IC50 [4, 16]: 3.16 ± 0.37 µM; CC50 (J774.G8 cells): 130 ± 7.35 µM; decrease of ΔΨm considering both subpopulations ([11]; ex vivo amastigotes, LP plus HP, IC50, 24 h): 90%; CC50 (L929 cells): 270 ± 8.48 µM; viability of L929 cells (L929 cells; lower concentrations (37–100 μM)): > 50%
CCNc1cc2[s+]c3cc(NCC)c(C)cc3nc2cc1C.F[P-](F)(F)(F)(F)F.F[P-](F)(F)(F)(F)F.F[P-](F)(F)(F)(F)F.F[P-](F)(F)(F)(F)F.N#[O+].[Ru+2].c1cnc2c(c1)ccc1cccnc12.c1cnc2c(c1)ccc1cccnc12 [NMB-P, new methylene blue P] | – | – | 2,325,902.50 ** | 34,607.80 | 140,291.57 | 3063.17 | 0.90 ± 0.45 | 1.27 ± 0.45 | ≥ 96 | 2.84 | more inhibitory action | 642,051.43 | 7215.47 | 0.39 ± 0.13 | 0.21 ± 0.04 | 35.1 ± 2.08 | 86,029.23 | 3359.03 * | 0.49 ± 0.36 | −0.28 ± 0.03 | CC50 [14]: 71.6 ± 1.85 µM; CC50 (VERO cells): 240 ± 27.6 µM; efficacy compared with MT ([4]; ex vivo amastigotes): surpassed the efficacy of MT; IC50 [4, 16]: 0.46 ± 0.34 µM; CC50 (J774.G8 cells): 69.8 ± 10.4 µM; CC50 (L929 cells): 150 ± 12 µM
C[C@@H]1[C@H](O)[C@@H](C)/C=C/C=C/C=C/C=C/C=C/C=C/C=C/[C@H](O[C@@H]2O[C@H](C)[C@@H](O)[C@H](N)[C@@H]2O)C[C@@H]2O[C@](O)(C[C@@H](O)C[C@@H](O)[C@H](O)CC[C@@H](O)C[C@@H](O)CC(=O)O[C@H]1C)C[C@H](O)[C@H]2C(=O)O [Amphotericin B] | – | – | – | – | – | – | – | – | – | – | – | – | – | – | – | – | – | – | – | – | CC50 (HepG2 cells [15]): 35.2 µM
